{"source": "patent US20120022113A1", "about": "“METHODS FOR S[…] T[…] ACCUMULATION AND PREVENTING HYPERCYTOKINEMIA” (priority 2009, published 2012)", "key": {"[1]": {"tested_on": "influenza virus in madin-darby canine kidney (MDCK) cells", "assay": "Virus replication in MDCK cells", "details": "up to 1 μg/ml, compared to PBS"}, "[2]": {"tested_on": "H1N1 A/Puerto Rico/8/34 (PR8) influenza A virus", "set-up": "species or system B6 mice", "details": "mouse, in vivo"}}, "data": [{"smiles": "CCc1ccc(CCOc2ccc(CC3SC(=O)NC3=O)cc2)nc1", "note": "(centres unmarked) [pioglitazone]", "values": [{"measurement": "inhibition of virus replication in MDCK cells", "setting": "[1]", "value": "did not inhibit"}, {"measurement": "mortality", "setting": "[2]", "value": 50, "unit": "%"}]}]}
